These results are taken from patent publication US12458700B2, “Amine-containing transfection reagents and methods for making and using same” (Life Technologies Corporation, priority 2010, dated 2025).

The test system of this experiment is CSNK2A1. Kind of experiment: CSNK2A1 siRNA knockdown by qPCR in Hela, primary cortical neurons and primary hippocampal neurons. In kind it is cell-based, human, rat. Particulars: lipoplex with cholesterol 1:0.5, 30 nM siRNA, 24 h, FIG. 5. The source says: Some lipids of the present invention were formulated into lipid compositions, which also comprise cholesterol or DOPE, buffers and ethanol. Animal origin-free cholesterol was purchased from Sigma-Aldrich (St Louis, MO) and DOPE was purchased from Avanti Lipids (Alabaster, AL). Silencer® Select CSNK2A1 siRNA and Silencer® Select negative control siRNA (cat #4390824 siRNA id#s3637 and cat #4390843) having the antisense sequence […] (SEQ ID NO:2) and […] (SEQ ID NO:3), respectively, were resuspended with nuclease-free water to a stock concentration of 50 μM, which were further diluted to meet downstream experiments and is commercially available from Life Technologies (Carlsbad, CA).
For compounds 83 and 67, the dry powder lipids were re-suspended in ethanol at a final concentration of 1 mg/ml and either used as lipid alone (Compound 83) or combined with cholesterol in 1:0.5 ratio (Compound 67). The formulations tested were made as described in Table 3
Primary rat cortex neuronal cells were purchased from GIBCO (Cat. No. A10840) and maintained in Neurobasal™ medium (cat #21103-049) supplemented with 2% B-27® Serum-free (50× cat #17504-044) and 0.5 mM GlutaMAX™ (cat #35050-061). […]
For orientation: In qPCR the cycle at which signal appears reflects the starting amount.

As for `CCCCCCCCCCCCNC(=O)CNCCCN(CCCCNCCCN(CC(=O)NCCCCCCCCCCCC)CC(=O)NCCCCCCCCCCCC)CC(=O)NCCCCCCCCCCCC` [Compound 67], the “relative percent of CSNK2A1 remaining activity normalized to negative control” value is “do possess activity in vitro”.
